Measurements from PMC7462985, “Inhibitors of BRAF dimers using an allosteric site” (Nature Communications, 2020).

Assays:
ERBB4 = target: T1, ERBB4 (Homo sapiens, UniProt Q15303); assay: KINOMEscan scanEDGE binding; conditions: KinomeEDGE scan, compound at 1 μΜ
T1 construct: purchased Eurofins/DiscoverX KINOMEscan (scanEDGE panel)

EGFR = target: T2, EGFR (Homo sapiens, UniProt P00533); assay: KINOMEscan scanEDGE binding; conditions: KinomeEDGE scan, compound at 1 μΜ
T2 construct: purchased Eurofins/DiscoverX KINOMEscan (scanEDGE panel)

CRAF = target: T3, CRAF (Homo sapiens, UniProt P04049); assay: CRAF kinase activity assay (western blot); assay type: biochemical
T3 construct: purchased Millipore #17-360
T3 sequence (P04049 whole entry, species assumed): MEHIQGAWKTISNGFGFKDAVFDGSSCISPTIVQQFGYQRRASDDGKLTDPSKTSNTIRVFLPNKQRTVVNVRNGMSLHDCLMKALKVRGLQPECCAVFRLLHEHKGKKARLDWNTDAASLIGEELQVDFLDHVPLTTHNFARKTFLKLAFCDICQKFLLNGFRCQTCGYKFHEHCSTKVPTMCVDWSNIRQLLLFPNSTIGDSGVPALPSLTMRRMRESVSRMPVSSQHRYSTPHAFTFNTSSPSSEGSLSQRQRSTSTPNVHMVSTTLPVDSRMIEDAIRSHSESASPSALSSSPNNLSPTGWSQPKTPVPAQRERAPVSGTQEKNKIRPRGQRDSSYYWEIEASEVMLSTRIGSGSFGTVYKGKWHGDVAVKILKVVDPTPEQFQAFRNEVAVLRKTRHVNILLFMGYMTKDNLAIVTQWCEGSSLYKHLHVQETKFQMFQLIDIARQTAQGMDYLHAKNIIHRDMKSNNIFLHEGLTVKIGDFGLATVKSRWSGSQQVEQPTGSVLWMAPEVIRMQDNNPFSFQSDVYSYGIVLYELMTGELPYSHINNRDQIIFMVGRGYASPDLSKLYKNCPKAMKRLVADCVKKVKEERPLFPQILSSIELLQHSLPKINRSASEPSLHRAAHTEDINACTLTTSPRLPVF
Protocol: (§2) Kinase activity assays were performed using BRAF Kinase Assay Kit (#17-359), CRAF Kinase Assay Kit (#17-360) and MAP Kinase/Erk Assay Kit (#17-191), following protocols by the provider (Millipore) with some modifications. In brief, BRAF and CRAF, and MEK1 recombinant proteins were incubated for 15 min with inhibitors, then corresponding substrates were added and incubated for 30 min at 30 °C and assayed via western blot.

EPHA2 = target: T4, EPHA2 (Homo sapiens, UniProt P29317); assay: KINOMEscan scanEDGE binding; conditions: KinomeEDGE scan, compound at 1 μΜ
T4 construct: purchased Eurofins/DiscoverX KINOMEscan (scanEDGE panel)
T4 sequence (P29317 24-976): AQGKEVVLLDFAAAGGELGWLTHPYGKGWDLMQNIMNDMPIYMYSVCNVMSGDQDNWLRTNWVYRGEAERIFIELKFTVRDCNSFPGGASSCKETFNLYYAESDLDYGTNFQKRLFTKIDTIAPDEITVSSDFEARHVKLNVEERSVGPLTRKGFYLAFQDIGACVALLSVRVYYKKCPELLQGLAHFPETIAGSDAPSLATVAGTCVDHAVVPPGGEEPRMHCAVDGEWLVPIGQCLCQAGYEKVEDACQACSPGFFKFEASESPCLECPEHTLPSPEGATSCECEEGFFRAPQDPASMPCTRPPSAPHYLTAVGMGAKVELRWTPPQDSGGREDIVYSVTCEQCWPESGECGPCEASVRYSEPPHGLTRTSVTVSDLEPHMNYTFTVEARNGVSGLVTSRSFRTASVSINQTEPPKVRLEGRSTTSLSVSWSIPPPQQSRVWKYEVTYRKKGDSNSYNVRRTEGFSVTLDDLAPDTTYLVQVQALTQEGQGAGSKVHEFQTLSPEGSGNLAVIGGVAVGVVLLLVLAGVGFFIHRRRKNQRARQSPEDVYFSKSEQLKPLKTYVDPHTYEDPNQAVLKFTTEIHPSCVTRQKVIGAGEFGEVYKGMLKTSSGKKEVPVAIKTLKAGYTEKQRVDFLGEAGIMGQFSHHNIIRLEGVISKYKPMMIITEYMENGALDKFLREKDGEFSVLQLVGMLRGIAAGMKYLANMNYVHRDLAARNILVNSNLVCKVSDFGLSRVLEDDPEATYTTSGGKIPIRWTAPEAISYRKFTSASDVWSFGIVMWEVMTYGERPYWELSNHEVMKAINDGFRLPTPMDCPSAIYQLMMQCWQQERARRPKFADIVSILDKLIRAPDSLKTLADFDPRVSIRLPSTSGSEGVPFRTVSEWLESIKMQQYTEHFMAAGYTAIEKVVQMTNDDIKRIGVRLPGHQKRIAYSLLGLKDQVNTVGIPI

CDK7 = target: T5, CDK7 (Homo sapiens, UniProt P50613); assay: KINOMEscan scanEDGE binding; conditions: KinomeEDGE scan, compound at 1 μΜ
T5 construct: purchased Eurofins/DiscoverX KINOMEscan (scanEDGE panel)

FGFR1 [1] = target: T6, FGFR1 (Homo sapiens, UniProt P11362); assay: KINOMEscan scanEDGE binding; parameters: purchased Eurofins/DiscoverX KINOMEscan (scanEDGE panel); conditions: KinomeEDGE scan, compound at 1 μΜ
T6 sequence (P11362 22-822): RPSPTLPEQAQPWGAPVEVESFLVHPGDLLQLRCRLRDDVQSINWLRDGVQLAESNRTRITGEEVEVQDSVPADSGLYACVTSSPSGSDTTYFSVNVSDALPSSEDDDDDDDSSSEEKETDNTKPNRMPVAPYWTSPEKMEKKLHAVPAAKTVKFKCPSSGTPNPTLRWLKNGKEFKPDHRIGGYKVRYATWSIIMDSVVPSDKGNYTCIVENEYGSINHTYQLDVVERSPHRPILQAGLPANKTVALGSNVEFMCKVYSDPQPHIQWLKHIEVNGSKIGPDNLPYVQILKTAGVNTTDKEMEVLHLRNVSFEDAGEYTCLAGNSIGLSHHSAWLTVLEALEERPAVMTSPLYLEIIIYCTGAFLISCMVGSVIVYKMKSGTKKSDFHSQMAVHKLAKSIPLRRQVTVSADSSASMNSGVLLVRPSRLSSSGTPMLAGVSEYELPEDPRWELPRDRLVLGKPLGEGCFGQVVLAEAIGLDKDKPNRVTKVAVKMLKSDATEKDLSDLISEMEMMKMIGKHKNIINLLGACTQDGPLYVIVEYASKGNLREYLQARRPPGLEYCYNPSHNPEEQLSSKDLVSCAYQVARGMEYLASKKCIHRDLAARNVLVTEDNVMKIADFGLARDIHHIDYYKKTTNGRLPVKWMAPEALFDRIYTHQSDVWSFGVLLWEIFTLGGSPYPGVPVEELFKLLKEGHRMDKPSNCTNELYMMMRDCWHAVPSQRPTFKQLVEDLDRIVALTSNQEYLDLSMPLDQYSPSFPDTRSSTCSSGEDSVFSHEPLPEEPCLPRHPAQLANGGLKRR

BTK = target: T7, BTK (Homo sapiens, UniProt Q06187); assay: KINOMEscan scanEDGE binding; conditions: KinomeEDGE scan, compound at 1 μΜ
T7 construct: purchased Eurofins/DiscoverX KINOMEscan (scanEDGE panel)

IKK-beta = target: T8, IKK-beta (Homo sapiens, UniProt O14920); assay: KINOMEscan scanEDGE binding; conditions: KinomeEDGE scan, compound at 1 μΜ
T8 construct: purchased Eurofins/DiscoverX KINOMEscan (scanEDGE panel)

p38-alpha = target: T9, p38-alpha (Homo sapiens, UniProt Q16539); assay: KINOMEscan scanEDGE binding; conditions: KinomeEDGE scan, compound at 1 μΜ
T9 construct: purchased Eurofins/DiscoverX KINOMEscan (scanEDGE panel)

CDK9 = target: T10, CDK9 (Homo sapiens, UniProt P50750); assay: KINOMEscan scanEDGE binding; conditions: KinomeEDGE scan, compound at 1 μΜ
T10 construct: purchased Eurofins/DiscoverX KINOMEscan (scanEDGE panel)

EGFR(L858R) = target: T11, EGFR(L858R) (Homo sapiens, UniProt P00533, L858R); assay: KINOMEscan scanEDGE binding; conditions: KinomeEDGE scan, compound at 1 μΜ
T11 construct: purchased Eurofins/DiscoverX KINOMEscan (scanEDGE panel)

FGFR3 = target: T12, FGFR3 (Homo sapiens, UniProt P22607); assay: KINOMEscan scanEDGE binding; conditions: KinomeEDGE scan, compound at 1 μΜ
T12 construct: purchased Eurofins/DiscoverX KINOMEscan (scanEDGE panel)

[2] = target: T13, TYK2(JH1domain-catalytic) (Homo sapiens, UniProt P29597); assay: KINOMEscan scanEDGE binding; conditions: KinomeEDGE scan, compound at 1 μΜ
T13 construct: TYK2(JH1domain-catalytic); purchased Eurofins/DiscoverX KINOMEscan (scanEDGE panel)

PKAC-alpha = target: T14, PKAC-alpha (Homo sapiens, UniProt P17612); assay: KINOMEscan scanEDGE binding; conditions: KinomeEDGE scan, compound at 1 μΜ
T14 construct: purchased Eurofins/DiscoverX KINOMEscan (scanEDGE panel)

[3] = standard of care dose for CML; cited from earlier work
MKNK2 = target: T15, MKNK2 (Homo sapiens, UniProt Q9HBH9); assay: KINOMEscan scanEDGE binding; conditions: KinomeEDGE scan, compound at 1 μΜ
T15 construct: purchased Eurofins/DiscoverX KINOMEscan (scanEDGE panel)
T15 sequence (Q9HBH9 whole entry): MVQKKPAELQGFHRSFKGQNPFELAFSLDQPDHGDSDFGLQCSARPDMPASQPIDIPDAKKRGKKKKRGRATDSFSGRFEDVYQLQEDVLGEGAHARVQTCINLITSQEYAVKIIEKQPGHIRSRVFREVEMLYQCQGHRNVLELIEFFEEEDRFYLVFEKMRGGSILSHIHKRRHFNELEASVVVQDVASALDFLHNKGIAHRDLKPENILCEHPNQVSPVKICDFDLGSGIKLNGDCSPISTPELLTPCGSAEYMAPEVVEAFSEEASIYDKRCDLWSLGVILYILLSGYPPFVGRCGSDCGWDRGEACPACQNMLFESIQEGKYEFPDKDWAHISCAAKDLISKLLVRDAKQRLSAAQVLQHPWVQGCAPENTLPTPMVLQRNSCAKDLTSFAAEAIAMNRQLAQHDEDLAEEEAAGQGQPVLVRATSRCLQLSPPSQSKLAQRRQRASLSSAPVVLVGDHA

[4] = target: T16, JAK2(JH1domain-catalytic) (Homo sapiens, UniProt O60674); assay: KINOMEscan scanEDGE binding; conditions: KinomeEDGE scan, compound at 1 μΜ
T16 construct: JAK2(JH1domain-catalytic); purchased Eurofins/DiscoverX KINOMEscan (scanEDGE panel)

BRAF^V600E = BRAF^V600E (Homo sapiens, UniProt P15056, V600E); assay: BRAF kinase activity assay (western blot); assay type: biochemical; parameters: purchased Invitrogen (SelectScreen service)
Protocol: as §2

FGFR1 [5] = target: T6, FGFR1; assay: SelectScreen kinase activity assay; assay type: biochemical; parameters: purchased Invitrogen (SelectScreen service)
Protocol: (§3) BRAF kinase assays were performed using the Z’-LYTE™ enzymatic assay (Invitrogen, USA). […] Titrations were performed using a 1:3 dilution. Assays were performed using SelectScreen (Invitrogen).

ACVR1B = target: T17, ACVR1B (Homo sapiens, UniProt P36896); assay: KINOMEscan scanEDGE binding; conditions: KinomeEDGE scan, compound at 1 μΜ
T17 construct: purchased Eurofins/DiscoverX KINOMEscan (scanEDGE panel)

[6] = target: T18, ABL1(T315I)-phosphorylated (Homo sapiens, UniProt P00519, T315I); assay: KINOMEscan scanEDGE binding; conditions: KinomeEDGE scan, compound at 1 μΜ
T18 construct: purchased Eurofins/DiscoverX KINOMEscan (scanEDGE panel)

PDFGRα = target: T19, PDFGRα (Homo sapiens, UniProt P16234); assay: SelectScreen kinase activity assay; assay type: biochemical; conditions: 100 μM ATP
T19 construct: purchased Invitrogen (SelectScreen service)
Protocol: as §3

ROCK2 = target: T20, ROCK2 (Homo sapiens, UniProt O75116); assay: KINOMEscan scanEDGE binding; conditions: KinomeEDGE scan, compound at 1 μΜ
T20 construct: purchased Eurofins/DiscoverX KINOMEscan (scanEDGE panel)

ABL1-phosphorylated = target: T21, ABL1-phosphorylated (Homo sapiens, UniProt P00519); assay: KINOMEscan scanEDGE binding; conditions: KinomeEDGE scan, compound at 1 μΜ
T21 construct: purchased Eurofins/DiscoverX KINOMEscan (scanEDGE panel)

BRAF^WT = target: T22, BRAF^WT (Homo sapiens, UniProt P15056); assay: SelectScreen Z'-LYTE kinase activity assay; assay type: biochemical; conditions: 100 μM ATP
T22 construct: purchased Invitrogen (SelectScreen service)
Protocol: as §3

[7] = target: T23, ABL1(E255K)-phosphorylated (Homo sapiens, UniProt P00519, E255K); assay: KINOMEscan scanEDGE binding; conditions: KinomeEDGE scan, compound at 1 μΜ
T23 construct: purchased Eurofins/DiscoverX KINOMEscan (scanEDGE panel)

KIT = KIT (Homo sapiens, UniProt P10721); assay: SelectScreen kinase activity assay; assay type: biochemical; parameters: purchased Invitrogen (SelectScreen service); conditions: 100 μM ATP
Chain of KIT (P10721 26-976): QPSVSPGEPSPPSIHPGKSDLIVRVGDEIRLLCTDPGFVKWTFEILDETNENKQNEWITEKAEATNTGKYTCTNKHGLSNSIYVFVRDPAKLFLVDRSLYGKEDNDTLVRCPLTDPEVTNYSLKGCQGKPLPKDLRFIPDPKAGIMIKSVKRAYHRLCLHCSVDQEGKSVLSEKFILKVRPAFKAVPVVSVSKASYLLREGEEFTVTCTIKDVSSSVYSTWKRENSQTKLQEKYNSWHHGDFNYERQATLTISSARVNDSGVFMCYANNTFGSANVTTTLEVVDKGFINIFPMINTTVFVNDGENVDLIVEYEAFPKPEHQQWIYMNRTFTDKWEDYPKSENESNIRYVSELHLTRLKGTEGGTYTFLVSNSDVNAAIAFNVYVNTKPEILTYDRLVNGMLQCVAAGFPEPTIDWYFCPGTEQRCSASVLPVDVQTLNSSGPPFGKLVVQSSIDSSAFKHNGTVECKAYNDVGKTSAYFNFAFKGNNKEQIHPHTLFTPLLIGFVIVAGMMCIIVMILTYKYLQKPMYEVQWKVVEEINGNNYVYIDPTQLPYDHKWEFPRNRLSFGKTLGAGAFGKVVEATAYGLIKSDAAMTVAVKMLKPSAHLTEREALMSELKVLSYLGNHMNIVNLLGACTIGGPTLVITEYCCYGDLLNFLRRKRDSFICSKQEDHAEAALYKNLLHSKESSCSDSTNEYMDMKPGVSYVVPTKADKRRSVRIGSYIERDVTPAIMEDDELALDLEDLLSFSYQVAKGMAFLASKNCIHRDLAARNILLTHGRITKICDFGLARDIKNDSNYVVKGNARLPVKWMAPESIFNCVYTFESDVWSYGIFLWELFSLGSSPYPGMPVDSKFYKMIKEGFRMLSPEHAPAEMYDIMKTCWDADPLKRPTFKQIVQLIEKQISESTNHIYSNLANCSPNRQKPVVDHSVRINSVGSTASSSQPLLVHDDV
Protocol: as §3

EPHA = assay: KINOMEscan scanEDGE binding; parameters: species or system human; conditions: KinomeEDGE scan, compound at 1 μΜ
[8] = tested on: HEK293H cells expressing p61BRAF^V600E/R509H; assay: p-ERK inhibition in transfected HEK293H cells; assay type: cell-based; conditions: HEK293-H, 1 μM lapatinib pre-treatment 1 h, PHI1 1 h, read-out: IC50 of pERK inhibition
Protocol: (§1) HEK239H cells were seeded in 6-well plates (1 × 10^6 cells per well) and transfected the following day using Lipofectamine 3000 (Invitrogen L3000008) according to the manufacturer’s instructions. 2 μg of p61BRAF^V600E plasmid (pcDNA-3 vector) DNA per well was employed. […] ERK signaling and BRAF^V600E expression was assessed by western blot. […] In addition, HEK239H cells seeded in 6-well plates (1 × 10^6 cells per well) were transfected with Lipofectamine 3000 containing 2 μg of p61BRAF^V600E plasmid or 2 μg of p61BRAF^V600ER509H plasmid (pcDNA-3 vector) DNA per well. 24 h after transfection cells were treated with DMSO or increasing concentrations of PHI1 for 1 h and ERK signaling, and BRAF expression was assessed by western blot.

[9] = tested on: HEK293H cells expressing p61BRAF^V600E; assay: p-ERK inhibition in transfected HEK293H cells; assay type: cell-based; conditions: HEK293-H, 1 μM lapatinib pre-treatment 1 h, PHI1 1 h, read-out: IC50 of pERK inhibition
Protocol: as §1

ABL1-nonphosphorylated = target: T24, ABL1-nonphosphorylated (Homo sapiens, UniProt P00519); assay: KINOMEscan scanEDGE binding; conditions: KinomeEDGE scan, compound at 1 μΜ
T24 construct: purchased Eurofins/DiscoverX KINOMEscan (scanEDGE panel)

ABL1 = target: T25, ABL1 (Homo sapiens, UniProt P00519); assay: SelectScreen kinase activity assay; assay type: biochemical; conditions: 100 μM ATP
T25 construct: purchased Invitrogen (SelectScreen service)
Protocol: as §3

T1 sequence (Q15303 26-1308): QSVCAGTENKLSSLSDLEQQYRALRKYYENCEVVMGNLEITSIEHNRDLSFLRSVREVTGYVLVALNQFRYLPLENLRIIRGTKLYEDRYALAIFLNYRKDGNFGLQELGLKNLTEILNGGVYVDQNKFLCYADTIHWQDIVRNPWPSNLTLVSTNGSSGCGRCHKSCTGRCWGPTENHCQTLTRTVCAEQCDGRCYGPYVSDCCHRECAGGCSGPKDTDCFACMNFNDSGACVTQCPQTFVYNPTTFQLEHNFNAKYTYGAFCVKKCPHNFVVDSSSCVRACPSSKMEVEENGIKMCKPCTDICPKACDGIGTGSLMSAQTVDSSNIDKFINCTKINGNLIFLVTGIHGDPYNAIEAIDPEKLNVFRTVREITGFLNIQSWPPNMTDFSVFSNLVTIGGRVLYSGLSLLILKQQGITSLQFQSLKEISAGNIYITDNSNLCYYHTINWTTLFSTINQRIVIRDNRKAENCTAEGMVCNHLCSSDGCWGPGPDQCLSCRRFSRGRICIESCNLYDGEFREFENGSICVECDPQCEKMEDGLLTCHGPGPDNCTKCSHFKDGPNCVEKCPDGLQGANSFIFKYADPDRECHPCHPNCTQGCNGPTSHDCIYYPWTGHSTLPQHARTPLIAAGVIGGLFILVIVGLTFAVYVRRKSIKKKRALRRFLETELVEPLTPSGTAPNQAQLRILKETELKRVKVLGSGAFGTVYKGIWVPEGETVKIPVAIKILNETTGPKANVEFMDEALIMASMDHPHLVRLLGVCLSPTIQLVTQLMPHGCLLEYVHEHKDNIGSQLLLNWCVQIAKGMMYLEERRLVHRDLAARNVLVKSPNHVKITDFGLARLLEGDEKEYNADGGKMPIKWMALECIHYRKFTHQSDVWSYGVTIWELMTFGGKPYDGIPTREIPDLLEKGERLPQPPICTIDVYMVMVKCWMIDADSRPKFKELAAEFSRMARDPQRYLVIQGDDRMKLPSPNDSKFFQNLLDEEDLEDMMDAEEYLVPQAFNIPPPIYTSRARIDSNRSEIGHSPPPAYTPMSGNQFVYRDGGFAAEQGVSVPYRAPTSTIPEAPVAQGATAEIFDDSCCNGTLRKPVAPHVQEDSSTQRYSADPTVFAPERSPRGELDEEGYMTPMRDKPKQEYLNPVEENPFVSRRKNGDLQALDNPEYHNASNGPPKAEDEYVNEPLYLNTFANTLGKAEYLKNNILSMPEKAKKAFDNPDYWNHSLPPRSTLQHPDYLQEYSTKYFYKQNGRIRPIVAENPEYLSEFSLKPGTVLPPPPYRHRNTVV

In the case of Cc1ccc(C(=O)Nc2ccc(CN3CCN(C)CC3)c(C(F)(F)F)c2)cc1C#Cc1cnc2cccnn12 [Ponatinib, 3-[2-(imidazo[1,2-b]pyridazin-3-yl)ethynyl]-4-methyl-N-{4-[(4-methylpiperazin-1-yl)methyl]-3-(trifluoromethyl)phenyl}benzamide], the “% Ctrl ERBB4” value (ERBB4) is reported as 27 % Ctrl, the “% Ctrl EGFR” value (EGFR) is reported as 15 % Ctrl and the “inhibition of CRAF kinase activity (in words)” value (CRAF) is reported as “potently inhibited”. For the same compound, the “% Ctrl EPHA2” value (EPHA2) was 0 % Ctrl, the “% Ctrl CDK7” value (CDK7) was 6.2 % Ctrl and the “% Ctrl FGFR1” value (FGFR1 [1]) was 0.15 % Ctrl. The “% Ctrl BTK” value (BTK) was 22 % Ctrl, the “% Ctrl IKK-beta” value (IKK-beta) was 1.4 % Ctrl and the “% Ctrl p38-alpha” value (p38-alpha) was 0 % Ctrl. For the same compound, the “% Ctrl CDK9” value (CDK9) was 28 % Ctrl, the “% Ctrl EGFR(L858R)” value (EGFR(L858R)) was 19 % Ctrl and the “% Ctrl FGFR3” value (FGFR3) was 0.9 % Ctrl. For the same compound, the “% Ctrl TYK2(JH1domain-catalytic)” value [2] was 8.6 % Ctrl, the “% Ctrl PKAC-alpha” value (PKAC-alpha) was 8.1 % Ctrl and the elimination half-life [3] was over 24 h. For the same compound, the maximum plasma levels [3] was ~ 100 nM, the “% Ctrl MKNK2” value (MKNK2) was 0.6 % Ctrl and the “% Ctrl JAK2(JH1domain-catalytic)” value [4] was 9.5 % Ctrl. For the same compound, the “inhibition of MEK phosphorylation by BRAF^V600E (in words)” value (BRAF^V600E) was “potent inhibitor”.
For Cc1ccc(C(=O)Nc2ccc(CNCCN3CCOCC3)c(C(F)(F)F)c2)cc1C#Cc1cnc2cccnn12 [PHI1], the IC50 (FGFR1 [5]; 100 μM ATP) was 624 ± 25 nM, the “reduction of inhibitory activity on FGFR compared to Ponatinib” value (FGFR1 [5]; PHI1 versus Ponatinib) was 43 fold and the “% Ctrl ACVR1B” value (ACVR1B) was 0.4 % Ctrl. For the same compound, the “% Ctrl ABL1(T315I)-phosphorylated” value [6] was 3.5 % Ctrl, the IC50 (PDFGRα) was 8.3 ± 1.5 nM and the “% Ctrl ROCK2” value (ROCK2) was 35 % Ctrl. For the same compound, the “% Ctrl ABL1-phosphorylated” value (ABL1-phosphorylated) was 0.1 % Ctrl, the IC50 (BRAF^WT) was 323 ± 35 nM and the “% Ctrl ABL1(E255K)-phosphorylated” value [7] was 0.25 % Ctrl. For the same compound, the IC50 (KIT) was 548 ± 21 nM, the “% Ctrl EPHA” value (EPHA) was 14 % Ctrl and the IC50 [8] was 6800 nM. For the same compound, the IC50 [9] was 1890 nM, the “% Ctrl ABL1-nonphosphorylated” value (ABL1-nonphosphorylated) was 0 % Ctrl and the IC50 (ABL1) was 8.4 ± 0.3 nM.
